Source: ChEMBL document CHEMBL1201862, “PubChem BioAssay data set” (2004)
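Step 1: Grow cells in 96-well plates. Step 2: Expose to compound for 48 hours at 5 concentrations. Step 3: Interpolate endpoints linearly; if unreached, use highest concentration. At the GI50, growth is halved.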 Active and inactive are the calls of the source. No stated cut-off is given here; in the data, active = GI50 up to about 1.1 µM and inactive = higher.

What was measured:
Test in all cases: NCI-60 cell line screen, 48 h
[1] = test system: SK-OV-3
[2] = test system: M14
[3] = test system: CAKI-1
[4] = test system: DU-145
[5] = test system: UO-31
[6] = test system: MOLT-4
[7] = test system: A549
[8] = test system: OVCAR-3
[9] = test system: ACHN
[10] = test system: COLO 205
[11] = test system: RXF 393
[12] = test system: OVCAR-4
[13] = test system: HCT-116
[14] = test system: CCRF-CEM
[15] = test system: HCT-15
[16] = test system: HOP-92
[17] = test system: NCI/ADR-RES
[18] = test system: Malme-3M
[19] = test system: IGROV-1
[20] = test system: T47D

SMILES | GI50 [1] | GI50 [2] | GI50 [3] | GI50 [4] | GI50 [5] | GI50 [6] | GI50 [7] | GI50 [8] | GI50 [9] | GI50 [10] | GI50 [11] | GI50 [12] | GI50 [13] | GI50 [14] | GI50 [15] [µM] | GI50 [16] | GI50 [17] | GI50 [18] | GI50 [19] | GI50 [20]
CCOC(=O)/C(C[C@H]1OC(C)(C)O[C@@H]1[C@H]1COC(C)(C)O1)=N/O | > 100 µM (inactive) | > 100 µM (inactive) | > 100 µM (inactive) | > 100 µM (inactive) | > 100 µM (inactive) | > 100 µM (inactive) | > 100 µM (inactive) | > 100 µM (inactive) | > 100 µM (inactive) | > 100 µM (inactive) | > 100 µM (inactive) | > 100 µM (inactive) | > 100 µM (inactive) | > 100 µM (inactive) | > 100 | > 100 µM (inactive) | > 100 µM (inactive) | > 100 µM (inactive) | > 100 µM (inactive) | –
O=C1N=C2Sc3ccc4ccccc4c3N2C1=O | 15.5 µM (inactive) | 26.1 µM (inactive) | 24.1 µM (inactive) | – | 16 µM (inactive) | 44.4 µM (inactive) | 19.6 µM (inactive) | 18 µM (inactive) | 28.8 µM (inactive) | 29.6 µM (inactive) | 20.2 µM (inactive) | 17 µM (inactive) | 17.7 µM (inactive) | 31.3 µM (inactive) | 24.2 | 15 µM (inactive) | – | 19.1 µM (inactive) | 19.1 µM (inactive) | –
COc1ccc(-c2cc(-c3ccc(Cl)cc3)n(C3OC(CO)C(O)C(O)C3O)c(=S)c2C#N)cc1 (stereo not given) | > 100 µM (inactive) | 30 µM (inactive) | – | 4.04 µM (inactive) | 16.8 µM (inactive) | 5.79 µM (inactive) | – | – | > 100 µM (inactive) | 51.1 µM (inactive) | – | 30 µM (inactive) | 34.2 µM (inactive) | – | 38.5 | > 100 µM (inactive) | – | – | 26.5 µM (inactive) | 29.2 µM (inactive)
CCCCCCCCCCCCCC1=C(O)C(=O)C(CC2=C(O)C(=O)C(CCCCCCCCCCCCC)=C(O)C2=O)=C(O)C1=O | 44.7 µM (inactive) | > 100 µM (inactive) | > 100 µM (inactive) | > 100 µM (inactive) | > 100 µM (inactive) | > 10 µM (inactive) | > 100 µM (inactive) | > 100 µM (inactive) | 30.8 µM (inactive) | > 100 µM (inactive) | 6.11 µM (inactive) | – | > 100 µM (inactive) | 98.2 µM (inactive) | – | 75.2 µM (inactive) | – | > 100 µM (inactive) | > 100 µM (inactive) | > 100 µM (inactive)
O=[N+]([O-])c1ccc(C2CC(c3ccccc3Cl)=Nc3ccccc3S2)cc1 (stereo not given) | 29 µM (inactive) | 12.1 µM (inactive) | 4.46 µM (inactive) | – | 4.88 µM (inactive) | 1.56 µM (inactive) | 5.69 µM (inactive) | 8.79 µM (inactive) | 7.85 µM (inactive) | 15.8 µM (inactive) | 3.26 µM (inactive) | 9.84 µM (inactive) | 1.96 µM (inactive) | 2.07 µM (inactive) | 5.35 | 6 µM (inactive) | – | 10.9 µM (inactive) | 7.23 µM (inactive) | –
COC(=O)/C(=N\N)C(C(=O)C(=O)Nc1nnc(S)[nH]1)c1nc2ccc([N+](=O)[O-])cc2nc1O (stereo not given) | > 100 µM (inactive) | > 100 µM (inactive) | > 100 µM (inactive) | – | > 100 µM (inactive) | > 100 µM (inactive) | > 100 µM (inactive) | > 100 µM (inactive) | > 100 µM (inactive) | > 100 µM (inactive) | > 100 µM (inactive) | > 100 µM (inactive) | > 100 µM (inactive) | > 100 µM (inactive) | > 100 | > 100 µM (inactive) | – | > 100 µM (inactive) | > 100 µM (inactive) | –
COc1ccccc1/C=C(\NC(=O)c1ccccc1)c1nc2ccc(Cl)cc2[nH]1 | 37.2 µM (inactive) | 34.9 µM (inactive) | 21.4 µM (inactive) | – | 18 µM (inactive) | 15.2 µM (inactive) | 19.6 µM (inactive) | 18.5 µM (inactive) | 21.5 µM (inactive) | 19.1 µM (inactive) | 22.4 µM (inactive) | 22.9 µM (inactive) | 29 µM (inactive) | 21.7 µM (inactive) | 30.3 | 22.7 µM (inactive) | – | 47.8 µM (inactive) | 26.9 µM (inactive) | –
CCOC(=O)/C1=C(\C)N(Cc2ccccc2)C(=O)c2ccccc2C(=O)c2c(OC(C)=O)ccc(OC(C)=O)c21 | > 100 µM (inactive) | – | 72.3 µM (inactive) | – | > 100 µM (inactive) | 59.7 µM (inactive) | 36.4 µM (inactive) | 23.1 µM (inactive) | > 100 µM (inactive) | 78.7 µM (inactive) | 33.2 µM (inactive) | 24.9 µM (inactive) | – | 40.8 µM (inactive) | 69.3 | 12.7 µM (inactive) | 31.8 µM (inactive) | 69.8 µM (inactive) | 21.9 µM (inactive) | > 100 µM (inactive)
CC1(C(=O)O)CCC[C@@]2(C)C1CC[C@@]1(C)c3cocc3CCC21 (stereo not given in full) | > 100 µM (inactive) | > 100 µM (inactive) | > 100 µM (inactive) | – | > 100 µM (inactive) | > 100 µM (inactive) | 70.8 µM (inactive) | > 100 µM (inactive) | > 100 µM (inactive) | > 100 µM (inactive) | > 100 µM (inactive) | > 100 µM (inactive) | 72.8 µM (inactive) | > 100 µM (inactive) | > 100 | > 100 µM (inactive) | – | > 100 µM (inactive) | > 100 µM (inactive) | –
OC(C#Cc1ccccc1)(c1ccccc1)c1ccccc1 | > 100 µM (inactive) | > 100 µM (inactive) | 22.4 µM (inactive) | 30.1 µM (inactive) | 40.8 µM (inactive) | 47.6 µM (inactive) | 21.2 µM (inactive) | 26.7 µM (inactive) | 39 µM (inactive) | 50.7 µM (inactive) | – | 41.8 µM (inactive) | > 100 µM (inactive) | 11.6 µM (inactive) | 39.5 | – | 36.6 µM (inactive) | 24.2 µM (inactive) | 43.7 µM (inactive) | 18.9 µM (inactive)
[O-][n+]1c2cc(CBr)c(CBr)cc2[n+]([O-])c2c(O)cccc21 | 4.86 µM (inactive) | 1.75 µM (inactive) | 2.87 µM (inactive) | – | 1.93 µM (inactive) | 0.344 µM (active) | 3.1 µM (inactive) | 2.22 µM (inactive) | 1.81 µM (inactive) | 1.77 µM (inactive) | 1.76 µM (inactive) | 1.8 µM (inactive) | 1.53 µM (inactive) | 0.265 µM (active) | 1.56 | 1.05 µM (active) | – | 1.91 µM (inactive) | 4.02 µM (inactive) | –
CN(C)CCCNC(=O)N/N=C/c1ccc([N+](=O)[O-])cc1 | > 100 µM (inactive) | > 100 µM (inactive) | > 100 µM (inactive) | > 100 µM (inactive) | > 100 µM (inactive) | > 100 µM (inactive) | > 100 µM (inactive) | > 100 µM (inactive) | > 100 µM (inactive) | > 100 µM (inactive) | – | – | > 100 µM (inactive) | > 100 µM (inactive) | > 100 | – | > 100 µM (inactive) | 40.2 µM (inactive) | > 100 µM (inactive) | 86.1 µM (inactive)
O=C(Nc1cccc([N+](=O)[O-])c1)/C(=N\NC(=O)c1ccncc1)c1nc2ccc([N+](=O)[O-])cc2nc1O | > 100 µM (inactive) | > 100 µM (inactive) | 38.6 µM (inactive) | – | 21.9 µM (inactive) | 46.9 µM (inactive) | 39.5 µM (inactive) | > 100 µM (inactive) | 19.7 µM (inactive) | > 100 µM (inactive) | 60 µM (inactive) | > 100 µM (inactive) | 84.3 µM (inactive) | 14.7 µM (inactive) | 35 | 12.4 µM (inactive) | – | > 100 µM (inactive) | > 100 µM (inactive) | –
NC(CSC(c1ccccc1)(c1ccccc1)c1ccccc1)C(=O)O (stereo not given) | 0.634 µM (active) | 0.538 µM (active) | 4.41 µM (inactive) | – | 18.5 µM (inactive) | 1.24 µM (inactive) | 0.822 µM (active) | 1.7 µM (inactive) | 7.89 µM (inactive) | 0.665 µM (active) | – | 7.5 µM (inactive) | 0.615 µM (active) | 0.583 µM (active) | 0.925 | 7.31 µM (inactive) | 6.67 µM (inactive) | 2.17 µM (inactive) | 2.12 µM (inactive) | 0.684 µM (active)
N/C(=N\c1ccccc1)c1ccccc1N | > 100 µM (inactive) | > 100 µM (inactive) | > 100 µM (inactive) | > 100 µM (inactive) | > 100 µM (inactive) | > 100 µM (inactive) | > 100 µM (inactive) | > 100 µM (inactive) | > 100 µM (inactive) | > 100 µM (inactive) | > 100 µM (inactive) | > 100 µM (inactive) | > 100 µM (inactive) | 40.6 µM (inactive) | > 100 | 2.51 µM (inactive) | > 100 µM (inactive) | – | > 100 µM (inactive) | –
COc1c(OC(C)C)c(OC(C)C)c2oc(=O)n3c2c1C(c1ccccc1-n1c(C)ccc1C)C=C3 (stereo not given) | > 100 µM (inactive) | 29.2 µM (inactive) | > 100 µM (inactive) | 60.4 µM (inactive) | 36.1 µM (inactive) | 42.5 µM (inactive) | 39.4 µM (inactive) | > 100 µM (inactive) | 48.8 µM (inactive) | > 100 µM (inactive) | 22 µM (inactive) | 75 µM (inactive) | 16.7 µM (inactive) | 71.9 µM (inactive) | 61.8 | 53.7 µM (inactive) | 33.6 µM (inactive) | 13 µM (inactive) | 39.9 µM (inactive) | –
